Experimental data taken from patent EP0449699A2, “Pyrazole derivatives as angiotensin II-receptor antagonists, process for their preparation and pharmaceutical compositions containing them” (LABORATOIRES UPSA, priority 1990, dated 1991).

Test system: récepteurs surrénaliens de l'angiotensine II
Experiment: Displacement of radioligand [125I]-SIAII specifically bound to adrenal angiotensin II receptors (rat adrenal homogenate)
Assay type: binding
Conditions: 60 min, 25°C
Source text: L'affinité des produits des exemples pour les récepteurs de l'angiotensine II est évaluée par technique de déplacement d'un radioligand spécifiquement fixé sur les récepteurs surrénaliens de l'angiotensine Il, chez le rat.
Une aliquote d'un homogénat de surrénales de rat incube en présence d'une concentration unique de [^125I]-SIAII (Sar^1, Tyr^4, Ile^8 - angiotensine II), antagoniste des récepteurs de l'angiotensine II, et de deux concentrations d'agents compétiteurs (10^-5 M, 10-^7 M) durant 60 min à 25°C.
La réaction est achevée par ajout de tampon, puis rapide filtration à travers des filtres de papier de verre. La liaison non spécifique est déterminée en présence d'angiotensine Il.
Les résultats sont exprimés, pour les concentrations testées, en pourcentage de déplacement du radioligand spécifiquement fixé sur les récepteurs surrénaliens de l'angiotensine Il.

Compound	% de déplacement du ligand marqué (competitor 1E-5 M, 10 µM) [%]	% de déplacement du ligand marqué (competitor 1E-7 M, 0.1 µM) [%]
CCCc1nn(C)c(OCC(=O)OCC)c1Cc1ccc(NC(=O)c2c(Cl)ccc(Cl)c2C(=O)O)cc1 [Exemple 30, [Méthyl-1 n-propyl-3 ((carboxy-2 dichloro-3,6-benzoyl amino)-4 benzyl)-4 pyrazol-yl-5] oxyacétate d'éthyle]	96	63
CCCCc1nn(C)c(O)c1Cc1ccc(-c2ccccc2C(=O)O)cc1 [Exemple 36, Acide [Méthyl-1 n-butyl-3 hydroxy-5 pyrazol-yl-4] méthyl-4' biphényl-2 carboxylique]	62	10
CCCCc1nn(C)c(OCC(=O)O)c1Cc1ccc(-c2ccccc2C(=O)O)cc1 [Exemple 37, Acide [Méthyl-1 n-butyl-3 (carboxy-2' biphényl-yl-4)méthyl-4 pyrazol-yl-5] oxyacétique]	58	9
CCCCc1nn(C)c(O)c1Cc1ccc(NC(=O)c2c(Cl)ccc(Cl)c2C(=O)O)cc1 [Exemple 40, Acide [(Méthyl-1 n-butyl-3 hydroxy-5 pyrazolyl-4]méthylphényl-yl-4] amino carbonyl-2 dichloro-3,6 benzoïque]	83	0
CCCc1nn(CC(=O)OCC)c(O)c1Cc1ccc(NC(=O)c2c(Cl)ccc(Cl)c2C(=O)O)cc1 [Exemple 41, Acide [[éthoxy carbonyl méthyl-1 n-propyl-3 hydroxy-5 pyrazol-yl-4]méthylphényl-yl-4] amino carbonyl-2 dichloro-3,6 benzoïque]	85	2
CCCc1nn(CC(=O)OCC)c(OCC(=O)OCC)c1Cc1ccc(NC(=O)c2c(Cl)ccc(Cl)c2C(=O)O)cc1 [Exemple 44, Acide [[(Ethoxy carbonyl méthyl)-1 n-propyl-3 (Ethoxy carbonyl méthyloxy)-5 pyrazol-yl-4]méthylphényl-yl-4] amino carbonyl-2 dlchloro-3,6-benzoïque]	96	9
CCCCc1nn(C)c(OCC(=O)N2CCOCC2)c1Cc1ccc(NC(=O)c2ccccc2S(=O)(=O)O)cc1 [Exemple 48, N-[[Méthyl-1 n-butyl-3 [(sulfo-2 benzoyl amino)-4 benzyl]-4 pyrazol-yl-5]oxyacétyl] morpholine]	80	58
CCCCc1nn(C)c(OCCO)c1Cc1ccc(NC(=O)c2ccccc2S(=O)(=O)O)cc1 [Exemple 51, Acide [[Méthyl-1 n-butyl-3 (hydroxy-2 éthoxy)-5 pyrazol-yl-4]méthylphényl-yl-4] amino carbonyl-2 benzène sulfonique]	83	60
CCCc1nn(C)c(OC(=O)N(C)C)c1Cc1ccc(NC(=O)c2ccccc2S(=O)(=O)O)cc1 [Exemple 54, Acide [[Méthyl-1 n-propyl-3 (N,N-diméthyl carbamoyl)oxy-5 pyrazol-yl-4]méthylphényl-yl-4] aminocarbonyl-2 benzène sulfonique]	77	62
CCCc1nn(C)c(OC(=O)N(CC)CC)c1Cc1ccc(NC(=O)c2ccccc2S(=O)(=O)O)cc1 [Exemple 57, Acide [[Méthyl-1 n-Propyl-3 (N,N-diéthyl carbamoyl)oxy-5 pyrazol-yl-4]méthylphényl-yl-4] amino carbonyl-2 benzène sulfonique]	80	60
CCCc1nn(CC(F)(F)F)c(OC(=O)N(C)C)c1Cc1ccc(NC(=O)c2ccccc2S(=O)(=O)O)cc1 [Exemple 60, Acide [[(trifluoro-2,2,2 éthyl)-1 n-Propyl-3 (N,N-diméthyl carbamoyl)oxy-5 pyrazol-yl-4]méthylphényl-yl-4] amino carbonyl-2 benzène sulfonique]	84	49
CCCc1nn(C)c(OCC(=O)N2CCN(c3ccccc3OC)CC2)c1Cc1ccc(NC(=O)c2ccccc2S(=O)(=O)O)cc1 [Exemple 66, (Méthoxy-2 phényl)-1 [[méthyl-1 n-propyl-3 [(sulfo-2 benzoyl amino)-4 benzyl]-4 pyrazol-yl-5]oxyacétyl]-4 pipérazine]	92	63
CCCc1nn(C)c(OCC(=O)OCC)c1Cc1ccc(-c2ccccc2-c2nnn[nH]2)cc1 [Exemple 70, [Méthyl-1 n-Propyl-3 [(tétrazolyl-5)-2' biphényl-yl-4]méthyl-4 pyrazol-yl-5] oxy acétate d'éthyle]	67	49
CCCc1nn(C)c(O)c1Cc1ccc(-c2ccccc2-c2nnn[nH]2)cc1 [Exemple 71, Méthyl-1 n-Propyl-3 hydroxy-5 [(tétrazolyl-5)-2' biphényl-yl-4] méthyl-4 pyrazole]	58	24
CCCc1nn(CC(F)(F)F)c(O)c1Cc1ccc(-c2ccccc2-c2nnn[nH]2)cc1 [Exemple 74, (Trifluoro-2,2,2 éthyl)-1 n-Propyl-3 hydroxy-5 [(tétrazolyl-5)-2' biphényl-yl-4] méthyl-4 pyrazole]	66	58
CCCCc1nn(CC(F)(F)F)c(OCC(=O)OCC)c1Cc1ccc(-c2ccccc2-c2nn[nH]n2)cc1 [Exemple 78, [(trifluoro-2,2,2éthyl)-1 n-Butyl-3 [(tétrazolyl-5)-2' biphényl-yl-4]méthyl-4 pyrazol-yl-5] oxy acétate d'éthyle]	73	58

Now from value to compound:

% de déplacement du ligand marqué (competitor 1E-5 M, 10 µM) [%]	% de déplacement du ligand marqué (competitor 1E-7 M, 0.1 µM) [%]	Compound
92	39	CCCCc1nn(C)c(OCC(=O)OCC)c1Cc1ccc(NC(=O)c2ccccc2C(=O)O)cc1 [Exemple 27, [Méthyl-1 n-butyl-3 ((carboxy-2 benzoyl amino)-4 benzyl)-4 pyrazol-yl-5] oxyacétate d'éthyle]
82	34	CCCc1nn(C)c(OCC(=O)OC)c1Cc1ccc(NC(=O)c2ccccc2C(=O)O)cc1 [Exemple 28, [Méthyl-1 n-propyl-3 ((carboxy-2 benzoyl amino)-4 benzyl)-4 pyrazol-yl-5] oxyacétatede méthyle]
80	40	CCCc1nn(C)c(OCC(=O)OCC)c1Cc1ccc(NC(=O)c2ccccc2C(=O)O)cc1 [Exemple 29, [Méthyl-1 n-propyl-3 ((carboxy-2 benzoyl amino)-4 benzyl)-4 pyrazol-yl-5] oxyacétate d'éthyle]
93	60	CCCc1nn(C)c(OCC(=O)OC)c1Cc1ccc(NC(=O)c2c(Cl)ccc(Cl)c2C(=O)O)cc1 [Exemple 31, [Méthyl-1 n-propyl-3 ((carboxy-2 dlchloro-3,6-benzoyl amino)-4 benzyl)-4 pyrazol-yl-5] oxyacétatede méthyle]
98	52	CCCc1nn(CC(F)(F)F)c(OCC(=O)OC)c1Cc1ccc(NC(=O)c2c(Cl)ccc(Cl)c2C(=O)O)cc1 [Exemple 32, [(trifluoro-2,2,2 éthyl)-1 n-propyl-3 ((carboxy-2 dichloro-3,6-benzoyl amino)-4 benzyl)-4 pyrazol-yl-5] oxyacétatede méthyle]
94	26	CCCc1nn(CC(F)(F)F)c(OCC(=O)OC)c1Cc1ccc(NC(=O)c2ccccc2C(=O)O)cc1 [Exemple 33, [(trifluoro-2,2,2 éthyl)-1 n-propyl-3 ((carboxy-2 benzoyl amino)-4 benzyl)-4 pyrazol-yl-5] oxyacétatede méthyle]
85	48	CCCc1nn(C)c(OCC(=O)O)c1Cc1ccc(NC(=O)c2ccccc2S(=O)(=O)O)cc1 [Exemple 35, Acide [Méthyl-1 n-propyl-3 [(sulfo-2 benzoyl amino)-4 benzyl]-4 pyrazol-yl-5] oxy acétique]
92	60	CCCc1nn(C)c(OCC(=O)OCC)c1Cc1ccc(NC(=O)c2ccccc2S(=O)(=O)O)cc1 [Exemple 45, Acide [[Méthyl-1 n-propyl-3 (Ethoxy carbonyl méthyloxy)-5 pyrazol-yl-4]méthylphényl-yl-4] amino carbonyl-2 benzène sulfonlque.]
91	64	CCCc1nn(CC(F)(F)F)c(OCCO)c1Cc1ccc(NC(=O)c2ccccc2S(=O)(=O)O)cc1 [Exemple 63, Acide [[(trffiuoro-2,2,2 éthyl)-1 n-Propyl-3 (hydroxy-2 éthoxy)-5 pyrazol-yl-4]méthyl-4 phényl-yl-4] amino carbonyl-2 benzène sulfonique]
